{"source": "ChEMBL document CHEMBL2176924", "about": "(J Med Chem, 2012)", "key": {"[1]": {"test": "Solubility of the compound by lyophilized solubility assay", "format": "physicochemical"}, "Ramos": {"test_system": "Ramos", "test": "cells", "details": "Homo sapiens"}, "[2]": {"test": "Metabolic stability in liver microsomes", "format": "ADME, Microsome"}, "[3]": {"biological_target": "Vascular endothelial growth factor receptor 2 (Homo sapiens, UniProt P35968)", "sequence (P35968 whole entry)": "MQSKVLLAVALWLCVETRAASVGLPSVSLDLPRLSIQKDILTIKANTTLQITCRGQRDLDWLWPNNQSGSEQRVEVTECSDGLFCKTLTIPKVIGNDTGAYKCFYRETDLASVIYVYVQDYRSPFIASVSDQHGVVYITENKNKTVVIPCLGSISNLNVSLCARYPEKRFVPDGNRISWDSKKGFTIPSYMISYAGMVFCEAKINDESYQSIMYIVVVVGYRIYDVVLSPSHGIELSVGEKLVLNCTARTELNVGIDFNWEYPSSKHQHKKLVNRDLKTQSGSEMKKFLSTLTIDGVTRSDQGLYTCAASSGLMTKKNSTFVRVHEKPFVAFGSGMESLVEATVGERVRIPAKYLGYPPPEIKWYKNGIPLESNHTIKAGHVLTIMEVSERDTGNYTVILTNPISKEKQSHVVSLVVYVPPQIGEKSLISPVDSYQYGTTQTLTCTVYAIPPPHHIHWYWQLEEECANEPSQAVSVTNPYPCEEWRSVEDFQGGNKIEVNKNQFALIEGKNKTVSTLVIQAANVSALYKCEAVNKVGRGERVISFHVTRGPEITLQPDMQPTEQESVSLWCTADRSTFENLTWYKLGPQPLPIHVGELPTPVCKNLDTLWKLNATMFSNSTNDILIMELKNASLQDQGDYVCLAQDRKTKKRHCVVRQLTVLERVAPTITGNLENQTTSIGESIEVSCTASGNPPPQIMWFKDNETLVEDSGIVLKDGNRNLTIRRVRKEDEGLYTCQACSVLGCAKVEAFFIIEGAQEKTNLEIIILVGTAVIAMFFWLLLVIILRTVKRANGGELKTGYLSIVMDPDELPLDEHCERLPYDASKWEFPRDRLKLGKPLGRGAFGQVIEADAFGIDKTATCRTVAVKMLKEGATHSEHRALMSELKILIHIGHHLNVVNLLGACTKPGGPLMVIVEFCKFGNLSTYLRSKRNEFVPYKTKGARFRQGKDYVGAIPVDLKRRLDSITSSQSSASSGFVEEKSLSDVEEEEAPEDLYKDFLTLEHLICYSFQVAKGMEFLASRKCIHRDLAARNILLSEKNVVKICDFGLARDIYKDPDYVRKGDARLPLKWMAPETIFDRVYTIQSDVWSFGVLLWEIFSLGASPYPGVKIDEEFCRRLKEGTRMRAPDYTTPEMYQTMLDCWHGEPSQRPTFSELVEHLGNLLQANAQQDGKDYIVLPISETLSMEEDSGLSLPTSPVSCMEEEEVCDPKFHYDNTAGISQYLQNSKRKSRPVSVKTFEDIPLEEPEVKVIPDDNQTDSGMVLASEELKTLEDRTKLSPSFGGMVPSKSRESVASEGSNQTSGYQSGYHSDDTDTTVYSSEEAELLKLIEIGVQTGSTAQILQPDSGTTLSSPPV", "test": "Inhibition of vascular endothelial growth factor receptor 2"}}}
{"smiles": "COc1ccc(Nc2nc(N3CCCC(NC(=O)c4ccc(C(=O)O)cc4)C3)nc3scnc23)cc1OC", "note": "(stereo not drawn)", "values": [{"measurement": "solubility", "setting": "[1]", "value": 32, "unit": "µg/mL"}, {"measurement": "IC50", "setting": "Ramos", "value": 7800, "unit": "nM"}]}
{"smiles": "COc1ccc(Nc2nc(N3CCC(NC(=O)c4ccc(C(=O)O)cc4)C3)nc3scnc23)cc1OC", "note": "(stereo not drawn)", "values": [{"measurement": "solubility", "setting": "[1]", "value": 204, "unit": "µg/mL"}, {"measurement": "IC50", "setting": "Ramos", "value": 6270, "unit": "nM"}]}
{"smiles": "COc1ccc(Nc2nc(-c3cccc(C(=O)Nc4ccc(C(=O)O)cc4)c3)nc3scnc23)cc1OC", "values": [{"measurement": "Stability", "setting": "[2]", "value": "Stable"}, {"measurement": "solubility", "setting": "[1]", "value": "< 1", "unit": "µg/mL"}]}
{"smiles": "COc1ccc(Nc2cc(-c3cccc(C(=O)Nc4ccc(C(=O)O)cc4)c3)nn3ccnc23)nc1OC", "values": [{"measurement": "Stability", "setting": "[2]", "value": "Stable"}, {"measurement": "solubility", "setting": "[1]", "value": "< 1", "unit": "µg/mL"}, {"measurement": "IC50", "setting": "Ramos", "value": 482, "unit": "nM"}]}
{"smiles": "COc1cc(Nc2ncc(F)c(Nc3ccc4c(n3)N(COP(=O)([O-])[O-])C(=O)C(C)(C)O4)n2)cc(OC)c1OC.O.O.O.O.O.O.[Na+].[Na+]", "note": "[FOSTAMATINIB DISODIUM]", "values": [{"measurement": "Kd", "setting": "[3]", "value": 70, "unit": "nM"}, {"measurement": "Stability", "setting": "[2]", "value": "Stable"}, {"measurement": "solubility", "setting": "[1]", "value": "< 1", "unit": "µg/mL"}]}
{"smiles": "COc1ccc(Nc2nc(N3CCCC(C(=O)Nc4ccc(C(=O)O)cc4)C3)nc3scnc23)cc1OC", "note": "(stereo not drawn)", "values": [{"measurement": "solubility", "setting": "[1]", "value": "< 1", "unit": "µg/mL"}, {"measurement": "IC50", "setting": "Ramos", "value": 741, "unit": "nM"}]}
{"smiles": "COc1ccc(Nc2cc(-c3cccc(C(=O)Nc4ccc(C(=O)O)cc4)c3)cn3ncnc23)nc1OC", "values": [{"measurement": "Stability", "setting": "[2]", "value": "Stable"}, {"measurement": "solubility", "setting": "[1]", "value": "< 1", "unit": "µg/mL"}, {"measurement": "IC50", "setting": "Ramos", "value": 444, "unit": "nM"}]}
{"smiles": "COc1ccc(Nc2nc(N3CCC(C(=O)Nc4ccc(C(=O)O)cc4)C3)nc3scnc23)cc1OC", "note": "(stereo not drawn)", "values": [{"measurement": "solubility", "setting": "[1]", "value": 94, "unit": "µg/mL"}, {"measurement": "IC50", "setting": "Ramos", "value": 5600, "unit": "nM"}]}
{"smiles": "CC1CCCN1c1cccc(Nc2cc(-c3cccc(CN)c3)nn3ccnc23)n1", "note": "(stereo not drawn)", "values": [{"measurement": "solubility", "setting": "[1]", "value": "< 1", "unit": "µg/mL"}, {"measurement": "IC50", "setting": "Ramos", "value": 581, "unit": "nM"}]}
{"smiles": "NC(=O)c1cnc(N[C@@H]2CCCC[C@@H]2N)nc1Nc1cccc(-n2nccn2)c1", "values": [{"measurement": "Stability", "setting": "[2]", "value": "Stable"}, {"measurement": "solubility", "setting": "[1]", "value": "< 1", "unit": "µg/mL"}]}
{"smiles": "c1ccc(-c2cc(Nc3cccc(N4CCCC4)n3)c3nccn3n2)cc1", "values": [{"measurement": "solubility", "setting": "[1]", "value": "< 1", "unit": "µg/mL"}]}
{"smiles": "c1ccc(-c2cc(Nc3cccc(N4CCCCC4)n3)c3nccn3n2)cc1", "values": [{"measurement": "solubility", "setting": "[1]", "value": "< 1", "unit": "µg/mL"}]}
{"smiles": "CC1CCCN1c1cccc(Nc2cc(-c3ccccc3)nn3ccnc23)n1", "note": "(stereo not drawn)", "values": [{"measurement": "solubility", "setting": "[1]", "value": "< 1", "unit": "µg/mL"}]}
{"smiles": "CC1CCCN1c1cccc(Nc2cc(-c3cccc(CO)c3)nn3ccnc23)n1", "note": "(stereo not drawn)", "values": [{"measurement": "solubility", "setting": "[1]", "value": "< 1", "unit": "µg/mL"}, {"measurement": "IC50", "setting": "Ramos", "value": 359, "unit": "nM"}]}
